US6479504B1, “Antagonism of immunostimulatory CpG-oligonucleotides by 4-aminoquinolines and other weak bases” (The University of Iowa Research Foundation, priority 1999, dated 2002)
Read-outs that look alike come from different tables or passages of the source.

Columns and labels:
[1] = system: CpG-ODN effect on thymidine uptake by WEHI 231 B-cells; assay: Inhibition of CpG-ODN effect on thymidine uptake by WEHI 231 B-cells treated with anti-surface IgM; type: cell-based, murine
From the text: The ability of analogs to inhibit an immunostimulatory effect of CpG-ODN was examined. This assay measures the reversal of the protection by CpG-ODN against surface IgM induced killing of WEHI 231 cells.

WEHI 231 cells [2] = assay: Uptake of Texas Red-labeled CpG-ODN 1760 by flow cytometry; type: cell-based, murine; conditions: 5 ug/ml Texas Red CpG-ODN 1760
Method: FIG. 6. […] The cells were then washed three times, and fixed. The cellular uptake of fluorescent CpG-ODN was estimated by flow cytometry. […] .
After incubation with the additions indicated, the cells were centrifuged and resuspended three times into Hanks buffered salt solution at 37° to remove surface bound ODN, and then resuspended and fixed in 2% paraformaldehyde for analysis in the University of-Iowa Flow Cytometry Facility. 10,000 events were recorded using a Coulter EPICS 753 at 488/600 nm, gating out dead cells. The mean cellular fluorescence was recorded.
The effect of chloroquine and non-fluorescent analogs on the uptake of Texas Red-labeled CpG-ODN 1760 was investigated. […] . Flow cytometry measures cell-associated fluorescence because signals derived from dead cells (which take up ODN avidly, (Tonkinson and Stein, 1994)) are easily gated out of the analysis.

CpG ODN 1760 = assay: DNA thermal melting at 260 nm; type: binding; conditions: 0.3 moles of compound per base, MES with 150 mM KCl, pH 4.4
Method: Thermal melting studies were conducted at 260 nm with a Cary spectrophotometer interfaced to a microcomputer. A thermistor fixed into a reference cuvette was used to monitor the temperature. The DNA oligomer was added to 1 mL of buffer (MES with 150 mM KCl, pH 4.4) in 1 cm path length reduced-volume quartz cells. Studies were generally conducted a at concentration of 5×10-^5M bases. […].
Structural nucleic acids with duplex or single-stranded folded conformations generally give sigmoid thermal melting curves characteristic of thermal unfolding of the structures. This unfolding results in a change in the UV spectrum. […]

WEHI 231 cells [3] = conditions: 1 μM
WEHI 231 cells [4] = assay: Confocal microscopy of subcellular distribution of internalized CpG-ODN
quadruplex DNA = assay: Quadruplex DNA stabilization; type: binding
From the text: Since nucleic acids are involved and several compounds of this study have been shown previously to strongly stabilize a triple-helix DNA structure, it was hypothesized initially that stabilization of the triple helix complex is part of the mechanism. […] In addition, compound 1 binds weakly to RNA (Wilson et al., 1993).

[5] = experimental, ring nitrogen of the quinoline; taken from Strekowski et al., J Med. Chem. 1996; cited from earlier work
triple-helix DNA = conditions: cited from earlier work
duplex DNA = conditions: cited from earlier work
RNA = conditions: cited from earlier work
WEHI 231 cells [6] = assay: Monensin effect on cellular concentration of quinacrine; type: cell-based, murine; conditions: Mus musculus, WEHI231, 0.5 h; 1 uM quinacrine, 30 min; read-out: Monensin concentration for half maximal inhibition of quinacrine uptake and loss of quinacrine from preloaded cells
Method: FIG. 5. Monensin: Cells were incubated with 1 uM quinacrine 17 or compound 227 for 30 min. Monensin at the indicated concentration was added either at the same time as the analog or at the end of the 30 min incubation, and the cellular concentration of the analog was determined by fluorescence.
Both effects were half maximal at a monensin concentration of about 1 μM (FIG. 5). Similar results were obtained with other analogs.

WEHI 231 cells [7] = conditions: mouse
Method: Cellular uptake of analogs was estimated by fluorescence. […] The cells were pelleted by centrifugation, and the fluorescence of the supernatant was measured after dilution with the appropriate buffer. The cell pellet was extracted with 1 ml Catrimox-14 (Iowa Biotechnology Corp., Coralville, La.), and the insoluble nucleic acids were removed by centrifugation (16,000×g, 10 min). The resulting extract was diluted with the appropriate buffer, and its fluorescence was measured. […] The fluorescence intensity and spectra were determined with a Farrand Manual Spectrofluorometer at three pH's (3.4, 7.4, 10.0). Subsequent measurements of fluorescence were performed at pH giving the highest yield (Table I).
Standard curves of the fluorescence intensity of each analog in cell culture medium and in the cell extract buffer were prepared, measurements being taken at the pH listed in the table. To examine the uptake of the analogs by cells, WEHI 231 cells were incubated with a range of concentrations of the analogs, and measured the concentration of the analog remaining in the supernatant and the amount of analog in the extract of a cell pellet using the standard curves.
The sources were a=Sigma Chemical Co., b=National Cancer Institute, c=Synthesized by LS, d=Synthesized by FMI. […] ND, not determined.

[8] = concentration required for 50% blockage of the ability of CpG-ODN to rescue WEHI 231 cells from anti-surface IgM-induced cell death, read-out: 50% Efficacy
[9] = concentration for half-maximal inhibition of CpG-ODN effect on thymidine uptake by WEHI 231 B-cells in presence of anti-sIgM, estimated experimental error ± 15%, read-out: EC50
[10] = Mus musculus, WEHI231, concentration for half-maximal inhibition of CpG-ODN effect on thymidine uptake by WEHI 231 B-cells in presence of anti-sIgM, estimated experimental error ± 15%, read-out: EC50
[11] = Mus musculus, WEHI231, concentration required for 50% blockage of the ability of CpG-ODN to rescue WEHI 231 cells from anti-surface IgM-induced cell death, read-out: 50% Efficacy

## COc1ccc2nc3cc(Cl)ccc3c(NC3CCCCC3Nc3ccnc4cc(Cl)ccc34)c2c1 (racemic) [Ism 9]
[1]; [8]
  EC50: 105 nM

## COc1ccc2nc3cc(Cl)ccc3c(NC3CCCCC3Nc3c4ccc(Cl)cc4nc4ccc(OC)cc34)c2c1 (racemic) [Ism 16]
[1]; [8]
  EC50: 14.5 nM

## CCN(CC)CCCC(Nc1c2ccc(Cl)cc2nc2ccc(OC)cc12)c1ccncc1 (centres unmarked) [10591-T/2, reference compound]
[1]; [8]
  EC50: 30.2 nM

## CCN(CC)CCCC(C)Nc1ccnc2cc(Cl)ccc12 (centres unmarked) [Chloroquine, chloroquine]
[1]; 1 μM
  Suppression of CpG-ODN responses: completely suppresses
WEHI 231 cells [2]
  Influence on CpG-ODN uptake: no significant influence
CpG ODN 1760
  Change in the thermal melting curve of the free CpG-ODN: did not cause any significant change
WEHI 231 cells [3]
  Increase in the pH of CpG-ODN-containing compartment: less than 0.01 pH units
WEHI 231 cells [4]
  Influence on subcellular distribution of internalized CpG-ODN: did not influence

## CN(C)CCNc1cc(-c2ccc3ccccc3c2)nc2ccccc12 [Compound 1]
[1]; [9]
  EC50: 9.1 nM
Quadruplex DNA
  Stabilization of quadruplex DNA: do not stabilize
[5]
  pKa: 7.1
triple-helix DNA
  Triplex DNA stabilization / binding: one of the best triplex DNA stabilizing agents known to date
Duplex DNA
  Binding to duplex DNA: binds weakly
RNA
  Binding to RNA: binds weakly

## CN(C)CCNc1cc(-c2ccc3ccc4ccccc4c3c2)nc2ccccc12 [Compound 2]
[1]; [9]
  EC50: 11 nM

## CN(C)CCNc1cc(-c2cccc3ccccc23)nc2ccccc12 [Compound 3]
[1]; [9]
  EC50: 39.8 nM
Quadruplex DNA
  Stabilization of quadruplex DNA: do not stabilize
triple-helix DNA
  Triplex DNA stabilization / binding: does not promote triplex DNA formation and does not bind to the triple DNA structure
Duplex DNA
  Binding to duplex DNA: does not bind at all

## Cc1ccc(-c2cc(NCCN(C)C)c3ccccc3n2)cc1 [Compound 4]
[1]; [9]
  EC50: 12.3 nM

## CN(C)CCNc1cc(/C=C/c2ccccc2)nc2ccccc12 [Compound 5]
[1]; [9]
  EC50: 6.5 nM

## CN(C)CCNc1cc(-c2ccc(C(F)(F)F)cc2)nc2ccccc12 [Compound 6]
[1]; [9]
  EC50: 155 nM

## CN(C)CCN(C)c1cc(-c2ccc3ccccc3c2)nc2ccccc12 [Compound 7]
[1]; [9]
  EC50: 416 nM
[5]
  pKa: 6.2

## CN(C)CCSc1cc(-c2ccc3ccccc3c2)nc2ccccc12 [Compound 9]
[1]; [9]
  EC50: 2400 nM
[5]
  pKa: 4.4

## CN(C)CCNC(=O)c1cc(-c2ccc3ccccc3c2)nc2ccccc12 [Compound 10]
[1]; [9]
  EC50: > 10000 nM
[5]
  pKa: 2.9

## CN(C)CCCNc1ccnc2ccccc12 [Compound 11]
[1]; [9]
  EC50: 4400 nM

## Cc1ccc(-c2cc(NCCCN(C)C)c3ccccc3n2)cc1 [Compound 12]
[1]; [9]
  EC50: 11.5 nM

## CN(C)CCCNc1cc(-c2ccc3ccccc3c2)nc2ccccc12 [Compound 13]
[1]; [9]
  EC50: 11 nM

## CN(C)CCCCNc1ccnc2ccccc12 [Compound 14]
[1]; [9]
  EC50: 316 nM

## CN(C)CCCCNc1cc(-c2ccc3ccccc3c2)nc2ccccc12 [Compound 15]
[1]; [9]
  EC50: 4 nM

## CN(C)CCCCCCNc1cc(-c2ccc3ccccc3c2)nc2ccccc12 [Compound 16]
[1]; [9]
  EC50: 5.9 nM

## CC(C)(C)OC(=O)NCCNc1cc(-c2ccc3ccccc3c2)nc2ccccc12 [Compound 20]
[1]; [9]
  EC50: 570 nM

## CC(CCCC(C)(C)O)Nc1cc(-c2ccc3ccccc3c2)nc2ccccc12 (centres unmarked) [Compound 21]
[1]; [9]
  EC50: 1150 nM

## CC(Nc1cc(-c2ccc3ccccc3c2)nc2ccccc12)C(O)c1ccccc1 (centres unmarked) [Compound 22]
[1]; [9]
  EC50: 1000 nM

## OCCOCCNc1cc(-c2ccc3ccccc3c2)nc2ccccc12 [Compound 23]
[1]; [9]
  EC50: 330 nM

## OCCCCCCNc1cc(-c2ccc3ccccc3c2)nc2ccccc12 [Compound 24]
[1]; [9]
  EC50: 170 nM

## O=C(CCCO)NCCCN1CCN(CCCNc2cc(-c3ccc4ccccc4c3)nc3ccccc23)CC1 [Compound 25]
[1]; [9]
  EC50: 25.1 nM

## CCCCc1ccc(Nc2cc(-c3ccc4ccccc4c3)nc3ccccc23)cc1 [Compound 26]
[1]; [9]
  EC50: > 10000 nM

## OCCc1ccc(Nc2cc(-c3ccc4ccccc4c3)nc3ccccc23)cc1 [Compound 27]
[1]; [9]
  EC50: 510 nM

## Oc1ccc(Nc2cc(-c3ccc4ccccc4c3)nc3ccccc23)cc1 [Compound 28]
[1]; [10]
  EC50: 320 nM

## Oc1c(CN2CCOCC2)cc(Nc2cc(-c3ccc4ccccc4c3)nc3ccccc23)cc1CN1CCOCC1 [Compound 29]
[1]; [10]
  EC50: 10 nM

## Oc1c(CN2CCCCC2)cc(Nc2cc(-c3ccc4ccccc4c3)nc3ccccc23)cc1CN1CCCCC1 [Compound 30]
[1]; [10]
  EC50: 1.5 nM

## Oc1c(CN2CCCC2)cc(Nc2cc(-c3ccc4ccccc4c3)nc3ccccc23)cc1CN1CCCC1 [Compound 31]
[1]; [10]
  EC50: 1.2 nM

## CN1CCN(Cc2cc(Nc3cc(-c4ccc5ccccc5c4)nc4ccccc34)cc(CN3CCN(C)CC3)c2O)CC1 [Compound 32]
[1]; [10]
  EC50: 0.24 nM

## CCN(CCO)CCCC(C)Nc1ccnc2cc(Cl)ccc12 (centres unmarked) [Hydroxychloroquine, reference compound]
[1]; [11]
  EC50: 407 nM

## CN(C)CCNc1cc(-c2ccc3ccccc3c2)nc2ccccc12 [LS-8]
[1]; [8]
  EC50: 9.5 nM

## CCCCN(CCCC)CCCNc1cc(-c2ccc3ccccc3c2)nc2ccccc12 [MHQ-6]
[1]; [8]
  EC50: 16.3 nM

## CC[C@@]1([C@@H]2O[C@@H]([C@H]3O[C@@](O)(CO)[C@H](C)C[C@@H]3C)C[C@@H]2C)CC[C@H]([C@]2(C)CC[C@]3(C[C@H](O)[C@@H](C)[C@@H]([C@@H](C)[C@@H](OC)[C@H](C)C(=O)O)O3)O2)O1 [Monensin]
WEHI 231 cells [6]
  EC50: ~1000 nM

## CN(C)CCCCCCNc1cc(-c2ccc3ccccc3c2)nc2ccccc12 [OZ-123]
[1]; [8]
  EC50: 5.9 nM

## CCN(CC)CCCC(C)Nc1c2ccc(Cl)cc2nc2ccc(OC)cc12 (centres unmarked) [Quinacrine]
[1]; [11]
  EC50: 10.2 nM
WEHI 231 cells [7]
  Cellular uptake ratio: 601
CpG ODN 1760
  Change in the thermal melting curve of the free CpG-ODN: did not cause any significant change

## C=C[C@H]1C[N@@]2CC[C@H]1C[C@H]2[C@H](O)c1ccnc2ccc(OC)cc12 [Quinine, reference compound]
[1]; [11]
  EC50: 23000 nM
